Columns and labels:
EMT6 tumors [1] = assay: in vivo chemosensitization of cyclophosphamide, subcutaneous EMT6 tumors in Balb/c mice; design: species or system murine (Balb/c mice); conditions: cyclophosphamide 40 mg/kg followed by GdT2BET 40 μmol/kg 5 min, or 5 min and 5 hr later; once a week for three weeks
Description: In vivo studies were carried out using Balb/c mice with EMT6 tumors implanted subcutaneously as described in Example 2. 4-Hydroxy cyclophosphamide was dissolved at a concentration of 5 mg/mL in 0.9% NaCl. GdT2BET was dissolved at a concentration of 2 mM in 5% mannitol. EMT6 tumors were implanted subcutaneously in the right flanks of Balb/c mice; 9 mice were in each group. Group #1 received cyclophosphamide (CY) at 40 mg/kg; group #2 received cyclophosphamide (CY) at 40 mg/kg followed by GdT2BET at 40 μmol/kg 5 min later; and group #3 received cyclophosphamide (CY) at 40 mg/kg followed by GdT2BET at 40 μmol/kg 5 min and 5 hr later. This protocol was repeated once a week for three weeks.

MES-SA cells [2] = tested on: MES-SA cells
MES-SA/Dx5 cells = assay: chemosensitization effect in doxorubicin-selected mdr1 variant; type: cell-based, human
EMT6 tumors [3] = tested on: EMT6 tumors
MES-SA cells [4] = type: cell-based, human
[5] = tested on: MDR gene in bone marrow cells; conditions: MDR1-transgenic mouse, simultaneous administration (Mickisch, 1991); cited from earlier work
[6] = in vivo; cited from earlier work

In the case of `CC(=O)[O-].CC(=O)[O-].CCc1c(CC)c2cc3nc(cnc4cc(OCCOCCOCCOC)c(OCCOCCOCCOC)cc4ncc4nc(cc1[n-]2)C(CCCO)=C4C)C(C)=C3CCCO.O.[Gd+3]` [GdT2BET], the “chemosensitization with cyclophosphamide in vivo” value (EMT6 tumors [1]) is reported as “little chemosensitization occurred”, the “enhancement of cytotoxicity of bleomycin” value (MES-SA cells [2]) is reported as “seen at all concentrations of bleomycin tested and at all three concentrations of texaphyrin tested” and the “percent survival of the cells” value (MES-SA cells [2]; with bleomycin, 50 μM, 100 μM, and 150 μM GdT2BET, 48 hr) is reported as “substantially less in the presence of texaphyrin”. The “mechanism of action of chemosensitization” value (MES-SA/Dx5 cells; MES-SA/Dx5 compared with MES-SA) was “P-glycoprotein-independent”, the “cures (no evidence of disease at end of study)” value (EMT6 tumors [3]; ADR+2GdT2BET group (GdT2BET 5 min and 5 hr post ADR), first study) was “Two” and the “cures, further study” value (EMT6 tumors [3]; ADR+2GdT2BET group, further study) was “two”. The “adriamycin cytotoxicity (tumor)” value (EMT6 tumors [3]; adriamycin 7.5 mg/kg iv followed by GdT2BET 40 μmol/kg iv, once a week for three weeks) was “clear enhancement of adriamycin cytotoxicity”, the “p, ADR+2GdT2BET versus ADR only” value (EMT6 tumors [3]; after day 9, FIG. 1, n=14) was < 0.05 and the “cytotoxicity in further study” value (EMT6 tumors [3]; further study: ADR+2GdT2BET and three-step texaphyrin/ADR/texaphyrin) was “enhanced cytotoxicity”.

With `N.N.[Cl][Pt][Cl]` [cisplatin] the “effectiveness in the presence of texaphyrin” value (“effectiveness in the presence” below) (MES-SA cells [4]) was “effective” and the “effectiveness in the presence” value (MES-SA/Dx5 cells) was “effective”.

For `COc1cccc2c1C(=O)c1c(O)c3c(c(O)c1C2=O)C[C@@](O)(C(=O)CO)C[C@@H]3O[C@H]1C[C@H](N)[C@H](O)[C@H](C)O1` [doxorubicin], the “effectiveness in the presence” value (MES-SA cells [4]) was “effective” and the “effectiveness in the presence” value (MES-SA/Dx5 cells) was “effective”.

For `COc1cc([C@@H]2c3cc4c(cc3[C@@H](O[C@@H]3O[C@@H]5CO[C@@H](C)O[C@H]5[C@H](O)[C@H]3O)[C@H]3COC(=O)[C@H]23)OCO4)cc(OC)c1O` [etoposide], the “IC50 difference relative to control / cytotoxicity in the presence of texaphyrin (FIG. 2)” value (MES-SA cells [2]) was “enhanced cytotoxicity”, the “effectiveness in the presence” value (MES-SA cells [4]) was “effective” and the “effectiveness in the presence” value (MES-SA/Dx5 cells) was “effective”.

For `CC(=O)O[C@H]1C(=O)[C@@]2(C)[C@H]([C@H](OC(=O)c3ccccc3)[C@]3(O)C[C@H](OC(=O)[C@H](O)[C@@H](NC(=O)c4ccccc4)c4ccccc4)C(C)=C1C3(C)C)[C@]1(OC(C)=O)CO[C@@H]1C[C@@H]2O` [paclitaxel], the “IC50 difference relative to control / cytotoxicity in the presence of texaphyrin (FIG. 2)” value (MES-SA cells [2]) was “enhanced cytotoxicity”.

In the case of `C=C[C@H]1C[N@@]2CC[C@H]1C[C@H]2[C@H](O)c1ccnc2ccc(OC)cc12` [quinine], the “reversal of drug resistance” value [5] is listed as “circumvented in a dose-dependent manner”.

For `CC/C(=C(\c1ccccc1)c1ccc(OCCN(C)C)cc1)c1ccccc1` [tamoxifen], the “dose-limiting toxicities as chemosensitizer” value [6] is given as “attributed to the inherent toxicity of the chemosensitizer and not due to enhanced chemotherapy toxicity”.

For `CN1CCN(CCCN2c3ccccc3Sc3ccc(C(F)(F)F)cc32)CC1` [trifluoperazine], the “dose-limiting toxicities as chemosensitizer” value [6] is listed as “attributed to the inherent toxicity of the chemosensitizer and not due to enhanced chemotherapy toxicity”.

In the case of `COc1ccc(CCN(C)CCCC(C#N)(c2ccc(OC)c(OC)c2)C(C)C)cc1OC` (centres unmarked) [verapamil], the “reversal of drug resistance” value [5] is listed as “circumvented in a dose-dependent manner”.

For bleomycin, the “effectiveness in the presence” value (MES-SA cells [4]) was “effective” and the “effectiveness in the presence” value (MES-SA/Dx5 cells) was “effective”.

Source: patent US5776925A, “Methods for cancer chemosensitization” (Pharmacyclics, Inc., priority 1996, dated 1998)
